In data set [1] the target is T1, human α2AAR (Homo sapiens (Human), UniProt P08913). Nature of the data set: Radioligand competition binding to human α2AAR (HEK293T membranes, [3H]RX82,1002). The conditions noted are these: human α2AAR; mean ± s.e.m.; read-out: Ki for α2AAR. A general note: Displacement assays read how much labelled ligand stays bound in the presence of the test substance.
Data set [2] concerns imidazoline-2 receptor (I2R). Nature of the data set: I2R binding (Eurofins Cerep). The conditions noted are these: tested at 500 nM.
Data set [3] can be described thus: Pharmacokinetics in mice (plasma, brain, CSF). The data set is classed as in vivo. As to the method: Pharmacokinetics. Pharmacokinetic experiments were performed by Bienta (Enamine Biology Services) in accordance with Enamine pharmacokinetic study protocols and Institutional Animal Care and Use Guidelines (protocol number 1-2/2020). […] In each compound study, nine time points (5, 15, 30, 60, 120, 240, 360, 480 and 1440 min) were collected, each of the time point treatment group included 3 animals. There was also a control group of one animal. In the ‘9087, ‘7075, ‘4622 studies, male C57BL/6N mice were used, for PS75 CD-1 mice, and for ‘2998 male Balb/cAnN mice. For all compound studies the animals were randomly assigned to the treatment groups before the pharmacokinetic study; all animals were fasted for 4 h before dosing. For injections, ‘9087 was dissolved in Captisol—water (40%:60%, w/v), ‘4622 was dissolved in a 20% Kolliphor HS—physiological saline solution, and ‘7075, PS75, and ‘2998 were dissolved in a 20% 2-HPBCD—aqueous solution. The batches of working formulations were prepared 10 minutes prior to the in vivo study.
Mice were injected i.p. with 2,2,2-tribromoethanol at 150 mg/kg prior to drawing CSF and blood. CSF was collected under a stereomicroscope from cisterna magna using 1 mL syringes. Blood collection was performed from the orbital sinus in microtainers containing K3EDTA. Animals were sacrificed by cervical dislocation after the blood samples collection. Blood samples were centrifuged 10 min at 3000 rpm. Brain samples (right lobe) were weighed and transferred into 1.5 ml tubes. All samples were immediately processed, flash-frozen and stored at −70° C. until subsequent analysis.
Plasma samples (40 μL) were mixed with 200 μL of internal standard (IS) solution. After mixing by pipetting and centrifuging for 4 min at 6000 rpm, 4 μL of each supernatant was injected into the LC-MS/MS system. Solutions of internal standards were used to quantify compounds in the plasma samples. […] After this, the samples were centrifuged for 4 min at 14,000 rpm, and supernatant was injected into LC-MS/MS system. CSF samples (2 μL) were mixed with 40 μL of an internal stock solution. After mixing by pipetting and centrifuging for 4 min at 6,000 rpm, 5 μL of each supernatant was injected into LC-MS/MS system.
(§1) Analyses of plasma, brain and CSF samples were conducted at Enamine/Bienta. The concentrations of compounds in plasma and brain samples were determined using high performance liquid chromatography/tandem mass spectrometry (HPLC-MS/MS). Data acquisition and system control was performed using Analyst 1.5.2 software (AB Sciex, Canada). […] Pharmacokinetic data analysis was performed using noncompartmental, bolus injection or extravascular input analysis models in WinNonlin 5.2 (PharSight).
Mice were injected i.p. with 2,2,2-tribromoethanol at 150 mg/kg prior to drawing CSF and blood. CSF was collected under a stereomicroscope from cisterna magna using 1 mL syringes. Blood collection was performed from the orbital sinus in microtainers containing K3EDTA. Animals were sacrificed by cervical dislocation after the blood samples collection. Blood samples were centrifuged 10 min at 3000 rpm. Brain samples (right lobe) were weighed and transferred into 1.5 mL tubes. All samples were immediately processed, flash-frozen and stored at −70° C. until subsequent analysis.
as §1
Additional pharmacokinetic experiments were performed by Sai Life Sciences (Hyderabad, India) in accordance with the Sai Study Protocol SAIDMPK/PK-22-04-0340. […] Testing was done in C57BL/6 mice.

For another data set, the system named is SNI mice. Nature of the data set: Spared-nerve injury (SNI) model of neuropathic pain, von Frey mechanical thresholds. The data set is classed as in vivo. Here is the method:
Spared-nerve injury (SNI) model of neuropathic pain. Under isoflurane anesthesia, two of the three branches of the sciatic nerve were ligated and transected distally, leaving the sural nerve intact. Behavior was tested 7 to 14 days after injury and in situ hybridization was performed one week post-injury.

The next data set relates to CFA mice. Nature of the data set: Complete Freund's Adjuvant (CFA) inflammatory pain model, Hargreaves test. The note with it: mouse, in vivo.
The target of data set [4] is T2, ALPHA-2A ADRENERGIC RECEPTOR (Homo sapiens (Human), UniProt P08913). Nature of the data set: Gi recruitment (G protein). The note with it: Gi recruitment, Tables 7-9. The data set is classed as cell-based.
T2 sequence (P08913 whole entry): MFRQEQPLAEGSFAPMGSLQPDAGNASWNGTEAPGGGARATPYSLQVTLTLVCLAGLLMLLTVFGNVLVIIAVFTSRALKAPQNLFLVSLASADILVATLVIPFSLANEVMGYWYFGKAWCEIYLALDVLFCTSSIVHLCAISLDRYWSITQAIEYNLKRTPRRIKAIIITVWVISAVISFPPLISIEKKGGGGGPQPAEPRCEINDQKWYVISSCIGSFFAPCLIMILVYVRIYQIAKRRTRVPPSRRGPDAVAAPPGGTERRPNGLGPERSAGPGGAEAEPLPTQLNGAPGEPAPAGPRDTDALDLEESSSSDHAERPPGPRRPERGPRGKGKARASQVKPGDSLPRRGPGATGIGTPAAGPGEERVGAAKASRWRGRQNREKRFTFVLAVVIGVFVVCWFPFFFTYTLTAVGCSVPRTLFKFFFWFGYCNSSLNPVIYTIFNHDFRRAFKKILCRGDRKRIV
The target in data set [5] is T2, ALPHA-2A ADRENERGIC RECEPTOR
Nature of the data set: Arrestin recruitment. The data set is classed as cell-based. The conditions noted are these: Tables 7-9. A general note: Activated receptors often draw arrestin, which recruitment assays turn into a signal.

Data set [6] concerns the target T1, human α2AAR. Nature of the data set: Gαi G protein activation, BRET biosensor assay in HEK293T cells. On the technique in general: BRET reads energy transfer from a luciferase to a nearby fluorophore.
Description: Bioluminescense resonance energy transfer. G protein mediated activation of human α2AAR and D2long was monitored with Gαi1-RLucII (71, 72) together with Gβ1 and Gγ1-GFP10. Arrestin recruitment was performed by enhanced bystander BRET using CAAX-rGFP and β-arrestin-2-RLucII as biosensors (all biosensors are provided from M. Bouvier, Université de Montréal, Canada) (71, 73) in the presence of GRK2 as described (66, 74). In brief, HEK293T cells were transfected with a total amount of 3.3 μg DNA per 10^6 cells using linear polyethyleneimine (PEI, Polysciences, 3:1 PEI:DNA ratio) and transferred into 96-well half-area plates (Greiner, Frickenhausen, Germany) at a density of 10,000 cells per well and incubated for 48 hrs. Medium was exchanged with PBS (Hank's balanced salt solution) and cells were stimulated with ligands at 37° C. for 10 min for Gαi stimulation or arrestin recruitment, respectively.
Data set [7] addresses T1, human α2AAR. Nature of the data set: β-arrestin-2 recruitment, BRET biosensor assay in HEK293T cells.
Data set [8] concerns mice. Nature of the data set: Constipation assay (fecal pellets over 6 hours). The conditions noted are these: i.p.; morphine 10 mg/kg, dexmedetomidine 30 μg/kg, ‘9087 5 mg/kg; versus vehicle.
The target in another data set is α2AAR-Y431^7.43A/F (Homo sapiens, UniProt P08913, Y431A). Nature of the data set: Gi activation (BRET) at α2AAR Y431^7.43 mutants. The data set is classed as cell-based. Here is the method: Investigating the sensitivity of selected ligands to the receptor mutants α2AAR-D128^3.32A, α2AAR-D128^3.32T, α2AAR-D128^3.32L, α2AAR-S215^5.42A, α2AAR-Y409^6.55A, α2AAR-Y409^6.55T, α2AAR-Y409^6.55F, α2AAR-F427^7.39F, α2AAR-Y431^7.43A, and α2AAR-Y431^7.43F was determined by monitored G protein stimulation as described above transfecting the appropriate receptor together with Gαi1-RLucII and Gβ1/Gγ1-GFP10. […] Three to ten experiments were done in duplicate.
The sensitivity of selected ligands to the receptor mutants α2AAR-D128^3.32A, α2AAR-D128^3.32T, α2AAR-D128^3.32L, α2AAR-S215^5.42A, α2AAR-Y409^6.55A, α2AAR-Y409^6.55T, α2AAR-Y409^6.55F, α2AAR-F427^7.39F, α2AAR-Y431^7.43A, and α2AAR-Y431^7.43F was monitored by G protein activation as described above transfecting the appropriate receptor together with Gαi1-RLucII and Gβ1/Gγ2-GFP10. […] Similarly, the effect of the α2AAR-D128^3.32A, α2AAR-S215^5.42A, α2AAR-Y409^6.55A, α2AAR-Y409^6.55F, α2AAR-F427^7.39F, α2AAR-Y431^7.43A, and α2AAR-Y431^7.43F mutations on arrestin recruitment was evaluated as described above transfecting the appropriate receptor together with CAAX-rGFP, GRK2 and β-arrestin-2-RLucII. Data was analyzed as ligand induced changes in BRET compared to vehicle (deltaBRET). Three to seven experiments were done in duplicate.

Data set [9] has as its system mice. Nature of the data set: Rotarod motor test (motor impairment and sedation). The class given is in vivo. The note with it: 60 μg/kg.
Data set [10] can be described thus: Body weight measurement over 48 hours. The note with it: ‘9087 5, 10 or 20 mg/kg; dexmedetomidine 30 μg/kg. The data set is classed as in vivo, mice.
Setting [11] is: mouse, plasma, ip, I.P. 10 mg/kg.

Entries after “also recorded” stand apart in the source; their conditions may differ. Like-named read-outs stand apart in the source and are kept apart here.

Broadly, the Ki is the dissociation constant of the complex between target and ligand, obtained from inhibition or displacement. What is called AUC is concentration integrated over time. Read a low AUC as less exposure. As usually defined, the Cmax is the maximum level reached in the sampled fluid or tissue. What is called EC50 is the midpoint of the concentration-response curve. By Emax is commonly meant the size of the effect at its maximum, as opposed to the concentration needed.

T1 sequence (P08913 whole entry): as above
Description for CFA mice: The CFA model of chronic inflammation was induced as described previously (96). Briefly, CFA (Sigma) was diluted 1:1 with saline and vortexed for 30 minutes. When fully suspended, we injected 20 μL of CFA into one hindpaw. Heat thresholds were measured before the injection (baseline) and 3 days after using the Hargreaves test.
The CFA model of chronic inflammation was induced as described previously (100). Briefly, CFA (Sigma) was diluted 1:1 with saline and vortexed for 30 minutes. When fully suspended, we injected 20 μL of CFA into one hindpaw. Heat thresholds were measured before the injection (baseline) and 3 days after using the Hargreaves test.

In the case of `Cc1cc2[nH]ncc2cc1-c1ccc(N)nc1` [Compound 2998, 5-(6-Methyl-1H-indazol-5-yl)pyridin-2-amine], the Ki at human α2AAR [1] worked out at 0.18 ± 0.034 µM. Besides, the “I2R binding, single point radioligand experiment” value in data set [2] is “no binding was seen”. The “AUC Brain” value in data set [3] (I.P. 10 mg/kg) worked out at 51700 ng·min/mL. In addition, the “Cmax Brain” value in [3] (I.P. 10 mg/kg) was found to be 742 ng/mL. Besides, the half-life in [3] (mouse, brain, ip, I.P. 10 mg/kg, read-out: T ½ Brain (converted)) was 27.6 min; in data set [3] (mouse, plasma, ip, I.P. 10 mg/kg, read-out: T ½ Plasma (converted)), 24 min. In [3] (setting [11]), this molecule had an AUC of 3070 ng·h/mL. Moreover, in data set [3] (setting [11]), the Cmax was 2710 ng/mL. Also, the “Effect of atipamezole on the agonist's effect in SNI mice” value in the data set with SNI mice (atipamezole 2 mg/kg, 15 minutes prior) was “not significant reversal; also recorded: partially reversed”. The “Mechanical thresholds / anti-allodynic effect in SNI mice” value in the data set on SNI mice (systemic injection) was “exhibited anti-allodynic effects”. Also, in the data set with CFA mice, the “Thermal latencies / anti-hyperalgesic effect in CFA model” value is reported as “did not”. The EC50 stood at 0.089 µM in data set [4] (read-out: G protein EC50); 0.073 ± 0.014 µM at human α2AAR [6] (Gαi EC50, BRET biosensor, HEK293T, human α2AAR); 0.098 ± 0.032 µM at human α2AAR [7]. Moreover, the Emax in [4] (read-out: G protein Emax (%)) is 60%; in [5], under 10%; at human α2AAR [6] (HEK-293T, read-out: Gαi Emax) it was 61 ± 3%; on human α2AAR [7] (HEK-293T, read-out: β-arrestin-2 Emax) it was 8 ± 3%.
For `CN1CC[C@]23c4c5ccc(O)c4O[C@H]2[C@@H](O)C=C[C@H]3[C@H]1C5` [morphine], the Constipation result in the data set on mice [8] is reported as “induced constipation”.
Take `Cc1cccc([C@H](C)c2cnc[nH]2)c1C` [dexmedetomidine]: the “Gi signaling at Y431^7.43A” value on α2AAR-Y431^7.43A/F was “essentially eliminated”. Also, in data set [3] (I.P. 30 μg/kg), the “AUC Brain” value worked out at 285 ng·min/mL and the “Cmax Brain” value was 8 ng/mL. Besides, the “Sedation in rotarod test” value in the data set on mice [9] is reported as “completely sedating; also recorded: complete sedation”. Further, the “Effect on body weight over 48 hours” value in data set [10] is “no effect on body weight”.
